Values of other authors in patent US5198423A, “Functional polypeptide containing a cell binding domain and a heparin binding domain of fibronectin” (Takara Shuzo Co., Ltd., priority 1989, dated 1993).

Test system: angiogenesis
Settings: chick embryo chorions, rabbit corneas, and hamster cheek pouches

| SMILES | inhibition of angiogenesis, in words |
| --- | --- |
| C[C@H]1C[C@@H]2[C@H]([C@@H](O)C[C@@]3(C)[C@H]2CC[C@]3(O)C(=O)CO)[C@@]2(C)C=CC(=O)C=C12 [6α-methylprednisolone] | found to inhibit angiogenesis |
| C[C@]12C=CC(=O)C=C1CC[C@@H]1[C@@H]2[C@@H](O)C[C@@]2(C)[C@H]1CC[C@]2(O)C(=O)CO [prednisolone] | found to inhibit angiogenesis |
| C[C@@H]1C[C@H]2[C@@H]3CCC4=CC(=O)C=C[C@]4(C)[C@@]3(F)[C@@H](O)C[C@]2(C)[C@@]1(O)C(=O)CO [dexamethasone] | found to inhibit angiogenesis |
